Measured values from patent US12610948B2, “Choline chloride adjuvant for fatty acid based biopesticide” (Stratacor, Inc., priority 2020, dated 2026).

How the values were obtained:
[1] = tested on: stable flies (Stomoxys calcitrans); experiment: Laboratory Petri dish filter paper incapacitation test, stable flies; assay type: in vivo; conditions: 1 ml on 9 cm filter paper in Petri dish
From the text: (§1) Mixed sex stable flies (Stomoxys calcitrans) were obtained as pupae from a colony at the University of Nebraska West Central Research and Extension Center, North Platte, Nebraska. Mixed sex horn flies (Haematobia irritans), sensitive and knockdown resistant (Kdr), were obtained as pupae from a colony at The Center for Animal Health and Food Safety, New Mexico State University, Las Cruces, New Mexico. Adult horn and stable flies were allowed to emerge in 1 cubic foot cages at approximately 80 degrees Fahrenheit and were maintained on citrated whole blood (Quad Five, Rygate, Montana). Mixed sex house flies (Musca domestica) were obtained as pupae from Carolina Biological, Charlotte, North Carolina Adults were allowed to emerge in 1 cubic foot cages at approximately 80 degrees Fahrenheit and were maintained on water and sugar cubes. Mixed sex German cockroaches (Blattella germanica) were obtained as adults from Carolina Biological. Prior to use, roaches were kept with the supplied food source in paper towels contained in 1 cubic foot cages. Flies were used 4-6 days post emergence.
(§2) An aqueous emulsion of the octanoic/decanoic acid mix (C8C10) was prepared by addition to an aqueous solution of the sodium salts of the fatty acids, prepared by mixing equal molar amounts of sodium hydroxide and fatty acid.

[2] = tested on: house flies (Musca domestica); experiment: Laboratory Petri dish incapacitation test, house flies; assay type: in vivo; conditions: aqueous emulsion, N = 3-4
From the text: as §1, §2

insect = conditions: 1% choline chloride in distilled water
From the text: However, several factors (e.g., volatility, skin penetration, odor, irritation of the skin, eyes, and respiratory passages, leaf wilt, incapacitation reversibility, etc.) inherent to fatty acids may limit their practical use for certain applications as a biopesticide, especially when used at a high dosage.

[3] = tested on: Knockdown Resistant (Kdr) Horn Fly (Haematobia irritans); experiment: Laboratory Petri dish incapacitation test, knockdown resistant (Kdr) horn flies; assay type: in vivo; conditions: C8C10 organic aqueous emulsion, Kdr strain
From the text: as §1, §2

[4] = tested on: German cockroaches (Blattella germanica); experiment: Laboratory Petri dish incapacitation test, German cockroaches; assay type: in vivo; conditions: aqueous emulsion, 6 roaches per dish
From the text: as §1, §2

[5] = tested on: Sensitive Horn Fly (Haematobia irritans); experiment: Laboratory Petri dish incapacitation test, sensitive horn flies; assay type: in vivo; conditions: C8C10 organic aqueous emulsion, sensitive strain
From the text: as §1, §2

acetylcholine receptors = conditions: scale where acetylcholine is 100; Keyl et al., 1957; cited from earlier work
[6] = assay type: in vitro ADME
From the text: The C8910 fatty acids are volatile (Reifenrath, 2015b), and 24-61% of the applied dose evaporated exponentially from clay formulation applied to skin. Skin penetration will also limit duration for dermal treatments (e.g., about 50-75% of the applied dose of octanoic and decanoic acid penetrated cattle skin from mineral oil). To provide finer control of these modes of loss, the development of longer lasting controlled-release formulations (clay nanotubes, disintegrating granules, and microcapsules) for use as premises spray and direct skin application for protecting cattle against biting flies and ticks was investigated (Reifenrath, 2015c), with none of the carriers showing an extended duration. Since that time, however, it has been shown that an aqueous dilution (to 1% C8910) of an emulsifiable concentrate could achieve a similar duration of effectiveness (2-3 days after a single treatment) as the 15% oil formulation. […] The limited duration of such a formulation can be overcome by more frequent application (e.g. walk-through sprayers).

SMILES: C[N+](C)(C)CCO.[Cl-] [Choline Chloride, 1.0%, Choline chloride]
- % Incapacitation at 24 h (Mean +/− S.D., N = 3) [1]: 4 +/− 3%
- % Incapacitation at 24 h (Mean +/− S.D.) [2]: 0 +/− 0%
- insecticidal effect (insect): little or no insecticidal effect
- % Incapacitation at 24 h (Mean +/− S.D., N = 3), Kdr [3]: 2 +/− 4%
- % Incapacitation at 24 h (Mean +/− S.D., N = 3) [4]: 0 +/− 0%
- % Incapacitation at 24 h (Mean +/− S.D., N = 3) ([4]; listed as choline chloride): no effect
- % Incapacitation at 24 h (Mean +/− S.D., N = 3), Sensitive [5]: 0 +/− 0%

SMILES: CCCC(=O)OCC[N+](C)(C)C [Formulation C4]
- relative potency (acetylcholine receptors): 100

SMILES: CCCCC(=O)OCC[N+](C)(C)C [Formulation C5]
- relative potency (acetylcholine receptors): 54

SMILES: CCCCCC(=O)OCC[N+](C)(C)C [Formulation C6]
- relative potency (acetylcholine receptors): 20

SMILES: CCCCCCCCCC(=O)O [decanoic acid]
- applied dose penetrated cattle skin [6]: 50-75%

SMILES: CCCCCCCC(=O)O [octanoic acid]
- applied dose penetrated cattle skin [6]: 50-75%
